Like-named read-outs stand apart in the source and are kept apart here.
Legend:
Assay type in all cases: in vivo
[1] = system: Alopecurus myosuroides (ALOMY); assay: Pre-emergence herbicidal action against ALOMY; conditions: scored visually after about 3 weeks, 100% = plants have died
How it was run: (§1)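 Seeds sown in pots and covered with soil; WP or EC formulations sprayed onto the soil surface at 600 l/ha water with 0.5% additive, at 320 g/ha or lower. Greenhouse growth for about 3 weeks, then visual scoring as % effect against untreated controls (100% = plants dead).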

[2] = system: Amaranthus retroflexus (AMARE); assay: Pre-emergence herbicidal action against AMARE; conditions: visual scoring after about 3 weeks vs untreated controls
How it was run: as §1

[3] = system: Digitaria sanguinalis (DIGSA); assay: Pre-emergence herbicidal action against DIGSA
How it was run: as §1

[4] = system: Echinochloa crus-galli (ECHCG); assay: Pre-emergence herbicidal action against ECHCG; conditions: dosage 320 g/ha
How it was run: as §1

[5] = system: Lolium rigidum (LOLRI); assay: Pre-emergence herbicidal action against LOLRI
How it was run: as §1

[6] = system: Matricaria inodora (MATIN); assay: Pre-emergence herbicidal action against MATIN; conditions: dosage 320 g/ha
How it was run: as §1

[7] = system: Setaria viridis (SETVI); assay: Pre-emergence herbicidal action against SETVI
How it was run: as §1

[8] = system: Verconica persica (VERPE); assay: Pre-emergence herbicidal action against VERPE; conditions: dosage 320 g/ha
How it was run: as §1

[9] = system: Viola tricolor (VIOTR); assay: Pre-emergence herbicidal action against VIOTR
How it was run: as §1

[10] = system: Oryza sativa (ORYSA); conditions: pre-emergence, 80 g/ha, crop plant compatibility, in comparison to untreated controls
How it was run: (§2)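 Crop injury rated visually in percent against untreated plants roughly 3 weeks after treatment (0% no effect, 100% plants dead). Compounds, as WP or EC with 0.5% additive in 600 l/ha water, were applied to the covering soil right after sowing; greenhouse growth. Suffixes a, b, c denote different dosages.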

[11] = system: Zea mays (ZEAMX); conditions: pre-emergence, 80 g/ha, crop plant compatibility, in comparison to untreated controls
How it was run: as §2

[12] = system: Alopecurus myosuroides (ALOMY); assay: Post-emergence herbicidal action against ALOMY; conditions: visual rating about 3 weeks after treatment vs untreated controls (100% = plants have died, 0% = like control plants)
How it was run: (§3)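 Post-emergence greenhouse spray, one-leaf stage, 600 l/ha water plus 0.5% additive; WP or EC formulations; application rates 320 g/ha or lower. Visual % damage vs untreated controls at ~3 weeks.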

[13] = system: Amaranthus retroflexus (AMARE); assay: Post-emergence herbicidal action against AMARE
How it was run: as §3

[14] = system: Avena fatua (AVEFA); assay: Post-emergence herbicidal action against AVEFA; conditions: visual rating about 3 weeks after treatment
How it was run: as §3

[15] = system: Digitaria sanguinalis (DIGSA); assay: Post-emergence herbicidal action against DIGSA; conditions: visual rating about 3 weeks after treatment
How it was run: as §3

[16] = system: Echinochloa crus-galli (ECHCG); assay: Post-emergence herbicidal action against ECHCG
How it was run: as §3

[17] = system: Lolium rigidum (LOLRI); assay: Post-emergence herbicidal action against LOLRI; conditions: dosage 320 g/ha
How it was run: as §3

[18] = system: Pharbitis purpurea (PHBPU); assay: Post-emergence herbicidal action against PHBPU
How it was run: as §3

[19] = system: Polygonum convolvulus (POLCO); assay: Post-emergence herbicidal action against POLCO
How it was run: as §3

[20] = system: Setaria viridis (SETVI); assay: Post-emergence herbicidal action against SETVI
How it was run: as §3

[21] = system: Verconica persica (VERPE); assay: Post-emergence herbicidal action against VERPE
How it was run: as §3

[22] = system: Viola tricolor (VIOTR); assay: Post-emergence herbicidal action against VIOTR
How it was run: as §3

[23] = system: Oryza sativa (ORYSA); conditions: crop plant compatibility
How it was run: (§4)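 Foliar application at the one-leaf stage: WP/EC formulation, 0.5% additive, 600 l/ha water. Greenhouse-grown in sandy loam. Endpoint is visual % injury relative to untreated controls at about 3 weeks.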

[24] = system: Zea mays (ZEAMX); conditions: for Post-emergence action against ZEAMX in %: crop plant compatibility, effect vs untreated controls
How it was run: as §4

[25] = system: Avena fatua (AVEFA); assay: Pre-emergence herbicidal action against AVEFA; conditions: 320 g/ha, visual scoring after about 3 weeks vs untreated controls
How it was run: as §1

[26] = system: Pharbitis purpurea (PHBPU); assay: Pre-emergence herbicidal action against PHBPU; conditions: dosage 320 g/ha
How it was run: as §1

[27] = system: Polygonum convolvulus (POLCO); assay: Pre-emergence herbicidal action against POLCO; conditions: dosage 320 g/ha
How it was run: as §1

[28] = system: Abutilon theophrasti (ABUTH); assay: Post-emergence herbicidal action against ABUTH; conditions: 320 g/ha, visual rating about 3 weeks after treatment vs untreated controls (100% = plants have died, 0% = like control plants)
How it was run: as §3

[29] = system: Matricaria inodora (MATIN); assay: Post-emergence herbicidal action against MATIN; conditions: dosage 320 g/ha
How it was run: as §3

[30] = 80 g/ha, visual scoring after about 3 weeks vs untreated controls
[31] = 80 g/ha, visual rating about 3 weeks after treatment vs untreated controls (100% = plants have died, 0% = like control plants)
[32] = 320 g/ha, visual rating about 3 weeks after treatment
[33] = 80 g/ha, effect in comparison to untreated controls
[34] = 320 g/ha, effect in comparison to untreated controls

O=C(O)COc1nn(-c2nc(F)ccc2F)c(-c2ccc(F)nc2)c1C1CC1 [Example I-302]
20%: Pre-emergence action against ORYSA in % [10] | Post-emergence action against ORYSA in % [23, 33]
0%: Post-emergence action against ZEAMX in % ([24]; 80 g/ha)
80%: Pre-emergence action against LOLRI in % ([5]; dosage 80 g/ha) | Post-emergence action against ALOMY in % ([12]; 80 g/ha) | Post-emergence action against AMARE in % [13, 31] | Post-emergence action against AVEFA in % ([14]; 80 g/ha) | Post-emergence action against AVEFA in % ([14]; 320 g/ha) | Post-emergence action against DIGSA in % ([15]; 320 g/ha) | Post-emergence action against ECHCG in % ([16]; dosage 320 g/ha) | Post-emergence action against LOLRI in % [17] | Post-emergence action against PHBPU in % ([18]; dosage 320 g/ha) | Post-emergence action against POLCO in % ([19]; dosage 320 g/ha) | Post-emergence action against SETVI in % ([20]; dosage 80 g/ha) | Post-emergence action against VERPE in % ([21]; 320 g/ha, VERPE) | Post-emergence action against VIOTR in % ([22]; 320 g/ha)
100%: Pre-emergence action against DIGSA in % ([3]; dosage 320 g/ha) | Pre-emergence action against SETVI in % ([7]; dosage 320 g/ha)
90%: Pre-emergence action against ALOMY ([1]; 320 g/ha) | Pre-emergence action against AMARE in % ([2]; 320 g/ha) | Pre-emergence action against DIGSA in % [3, 30] | Pre-emergence action against ECHCG in % [4] | Pre-emergence action against LOLRI in % ([5]; dosage 320 g/ha) | Pre-emergence action against MATIN in % [6] | Pre-emergence action against VERPE in % [8] | Pre-emergence action against VIOTR in % ([9]; 320 g/ha, Viola tricolor) | Post-emergence action against ALOMY in % ([12]; 320 g/ha) | Post-emergence action against AMARE in % [13, 32] | Post-emergence action against SETVI in % ([20]; dosage 320 g/ha)
10%: Pre-emergence action against ZEAMX in % [11] | Post-emergence action against ZEAMX in % ([24]; 320 g/ha)

COC(=O)COc1nn(-c2ncccc2C(F)(F)F)c(-c2cncc(F)c2)c1I [Example I-223]
100%: Pre-emergence action against AVEFA in % [25] | Pre-emergence action against VIOTR in % ([9]; 320 g/ha, Viola tricolor)
10%: Pre-emergence action against ORYSA in % [10] | Post-emergence action against ORYSA in % [23, 33]
80%: Pre-emergence action against DIGSA in % ([3]; dosage 320 g/ha) | Pre-emergence action against ECHCG in % [4] | Pre-emergence action against PHBPU in % [26] | Pre-emergence action against POLCO in % [27] | Pre-emergence action against VERPE in % [8] | Post-emergence action against ABUTH in % [28] | Post-emergence action against ALOMY in % ([12]; 320 g/ha) | Post-emergence action against AVEFA in % ([14]; 320 g/ha) | Post-emergence action against DIGSA in % ([15]; 80 g/ha) | Post-emergence action against ECHCG in % ([16]; dosage 80 g/ha) | Post-emergence action against PHBPU in % ([18]; dosage 80 g/ha) | Post-emergence action against PHBPU in % ([18]; dosage 320 g/ha) | Post-emergence action against POLCO in % ([19]; dosage 80 g/ha) | Post-emergence action against POLCO in % ([19]; dosage 320 g/ha) | Post-emergence action against SETVI in % ([20]; dosage 320 g/ha) | Post-emergence action against VERPE in % ([21]; 320 g/ha, VERPE) | Post-emergence action against VIOTR in % ([22]; 320 g/ha)
20%: Pre-emergence action against ZEAMX in % [11] | Post-emergence action against ORYSA in % [23, 34]
90%: Pre-emergence action against ALOMY ([1]; 320 g/ha) | Pre-emergence action against AMARE in % ([2]; 320 g/ha) | Pre-emergence action against VIOTR in % ([9]; dosage 80 g/ha) | Post-emergence action against DIGSA in % ([15]; 320 g/ha) | Post-emergence action against ECHCG in % ([16]; dosage 320 g/ha)

COC(=O)CCOC(=O)COc1nn(-c2ccccn2)c(-c2ccc(Cl)nc2)c1Br [Example I-246]
10%: Post-emergence action against ORYSA in % [23, 34] | Post-emergence action against ZEAMX in % ([24]; 80 g/ha)
80%: Pre-emergence action against VERPE in % [8] | Post-emergence action against AMARE in % [13, 32] | Post-emergence action against MATIN in % [29] | Post-emergence action against PHBPU in % ([18]; dosage 80 g/ha) | Post-emergence action against PHBPU in % ([18]; dosage 320 g/ha) | Post-emergence action against POLCO in % ([19]; dosage 320 g/ha) | Post-emergence action against VERPE in % ([21]; 320 g/ha, VERPE) | Post-emergence action against VIOTR in % ([22]; 80 g/ha) | Post-emergence action against VIOTR in % ([22]; 320 g/ha)
20%: Pre-emergence action against ZEAMX in % [11]
90%: Pre-emergence action against AMARE in % ([2]; 320 g/ha) | Pre-emergence action against DIGSA in % ([3]; dosage 320 g/ha)
0%: Pre-emergence action against ORYSA in % [10] | Post-emergence action against ORYSA in % [23, 33]

O=C(COc1nn(-c2ccccn2)c(-c2ccc(F)nc2)c1Br)OCC1CCOC1 (stereo not shown) [Example I-90]
0%: Post-emergence action against ORYSA in % ([23]; 20 g/ha, effect vs untreated controls) | Post-emergence action against ORYSA in % [23, 33] | Post-emergence action against ZEAMX in % (crop plant compatibility) ([24]; 20 g/ha, ZEAMX, effect in comparison to untreated controls)
20%: Pre-emergence action against ZEAMX in % [11]
100%: Pre-emergence action against ALOMY ([1]; 320 g/ha) | Pre-emergence action against AMARE in % ([2]; 80 g/ha) | Pre-emergence action against AMARE in % ([2]; 320 g/ha) | Pre-emergence action against DIGSA in % [3, 30] | Pre-emergence action against DIGSA in % ([3]; dosage 320 g/ha) | Pre-emergence action against ECHCG in % [4] | Pre-emergence action against LOLRI in % ([5]; dosage 320 g/ha) | Pre-emergence action against SETVI in % ([7]; dosage 320 g/ha)
90%: Pre-emergence action against ALOMY ([1]; 80 g/ha) | Pre-emergence action against MATIN in % [6] | Pre-emergence action against PHBPU in % [26] | Pre-emergence action against POLCO in % [27] | Pre-emergence action against SETVI in % ([7]; dosage 80 g/ha) | Pre-emergence action against VERPE in % [8] | Pre-emergence action against VIOTR in % ([9]; 320 g/ha, Viola tricolor) | Post-emergence action against ALOMY in % ([12]; 80 g/ha) | Post-emergence action against DIGSA in % ([15]; 80 g/ha) | Post-emergence action against VERPE in % ([21]; dosage 80 g/ha)
10%: Pre-emergence action against ORYSA in % [10] | Post-emergence action against ZEAMX in % ([24]; 80 g/ha)
80%: Post-emergence action against AMARE in % [13, 31]

Source: patent US20240041042A1, “1-(PYRIDYL)-5-AZINYLPYRAZOLE DERIVATIVES, AND THEIR USE FOR CONTROL OF UNDESIRED PLANT GROWTH” (Bayer Aktiengesellschaft, priority 2020, published 2024)
